Source: PMC8770514, “Induction of CTH expression in response to amino acid starvation confers resistance to anti-LAT1 therapy in MDA-MB-231 cells” (Scientific Reports, 2022)

Target: T1, L type amino acid transporter 1 (LAT1) (Homo sapiens, UniProt Q01650)
T1 construct: gene SLC7A5; with 4F2 heavy chain (4F2hc)
Test: inhibition of […] L-leucine uptake ([…] min, […] °C) in MDA-MB-231 cells (endogenous LAT1); […] in T-47D cells
Format: cell-based

T1 sequence (Q01650 whole entry): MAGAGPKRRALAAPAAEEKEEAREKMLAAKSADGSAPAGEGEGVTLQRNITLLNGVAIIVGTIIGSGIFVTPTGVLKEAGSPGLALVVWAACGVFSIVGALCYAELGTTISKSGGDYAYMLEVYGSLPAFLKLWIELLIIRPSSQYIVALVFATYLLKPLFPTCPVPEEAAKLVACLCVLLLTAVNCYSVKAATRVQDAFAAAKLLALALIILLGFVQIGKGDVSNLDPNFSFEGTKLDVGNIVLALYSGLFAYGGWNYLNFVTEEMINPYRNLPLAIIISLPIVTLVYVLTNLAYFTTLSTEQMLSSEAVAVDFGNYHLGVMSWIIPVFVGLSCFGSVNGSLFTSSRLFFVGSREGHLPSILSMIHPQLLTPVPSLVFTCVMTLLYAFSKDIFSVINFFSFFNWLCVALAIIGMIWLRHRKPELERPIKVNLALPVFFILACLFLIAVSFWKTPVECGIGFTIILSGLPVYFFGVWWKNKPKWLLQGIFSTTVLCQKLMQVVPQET
T1 sequence (P08195 103-630 partner): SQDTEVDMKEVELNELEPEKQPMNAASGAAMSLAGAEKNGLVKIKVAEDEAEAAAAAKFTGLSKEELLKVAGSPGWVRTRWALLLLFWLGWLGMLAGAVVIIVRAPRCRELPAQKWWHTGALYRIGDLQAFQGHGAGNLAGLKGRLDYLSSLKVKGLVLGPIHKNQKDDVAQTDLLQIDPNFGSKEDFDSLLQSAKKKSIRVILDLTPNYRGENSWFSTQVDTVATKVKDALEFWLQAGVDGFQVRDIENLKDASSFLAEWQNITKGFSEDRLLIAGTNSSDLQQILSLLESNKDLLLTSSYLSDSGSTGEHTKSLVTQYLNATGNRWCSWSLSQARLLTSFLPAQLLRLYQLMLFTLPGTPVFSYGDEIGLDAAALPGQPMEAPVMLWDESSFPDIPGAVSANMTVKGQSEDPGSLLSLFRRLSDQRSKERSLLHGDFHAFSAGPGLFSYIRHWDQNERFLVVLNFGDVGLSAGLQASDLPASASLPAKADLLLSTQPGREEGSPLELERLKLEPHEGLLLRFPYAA

IC50: 60 ± 20 nM
SMILES: Nc1cc(COc2c(Cl)cc(C[C@H](N)C(=O)O)cc2Cl)c2oc(-c3ccccc3)nc2c1 [JPH203, (S)-2-amino-3-(4-((5-amino-2-phenylbenzo[d]oxazol-7-yl)methoxy)-3,5-dichlorophenyl)-propanoic acid]
